Test results from patent US6914045B2, “Glycopeptide antibiotics” (Wyeth Holdings Corporation, priority 2001, dated 2005).
Converted amounts (≈) assume the structure as drawn.

Legend:
Assay in all cases: in vitro antibacterial evaluation, MIC by broth dilution
Assay type in all cases: cell-based
[1] = tested on: Enterococcus sp.; conditions: broth dilution, 18 hours at 35° C.
Outline: (§1)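 Test organisms, which included recent clinical isolates resistant to methicillin, penicillin and/or vancomycin, were inoculated at 5×10^5 CFU/mL into Muller-Hinton II […] containing antibiotic at 64-0.06 μg/mL. Minimum inhibitory concentrations were then read as the lowest level inhibiting growth.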

[2] = tested on: Escherichia coli; conditions: 18 hours at 35° C.
Outline: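 Step 1: dilute antibiotic across 64-0.06 μg/mL in Muller-Hinton II […]. Step 2: inoculate at 5×10^5 CFU/mL.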

[3] = tested on: Staphylococcus sp.; conditions: broth dilution, 18 hours at 35° C.
Outline: as §1

[4] = tested on: Streptococcus sp.; conditions: broth dilution, 18 hours at 35° C.
Outline: as §1

MIC Enterococcus avium (GC 4558) ([1]; Enterococcus avium (GC 4558)): 64 µg/mL (≈ 45.8 µM)
MIC Enterococcus faecalis (ATCC 29212) ([1]; Enterococcus faecalis (ATCC 29212)): >64 µg/mL
MIC Enterococcus faecalis (GC 4553) ([1]; Enterococcus faecalis (GC 4553)): 64 µg/mL (≈ 45.8 µM)
MIC Enterococcus faecalis (GC 4554) ([1]; Enterococcus faecalis (GC 4554)): >64 µg/mL
MIC Enterococcus faecium (GC 2243) ([1]; Enterococcus faecium (GC 2243)): >64 µg/mL
MIC Enterococcus faecium (GC 4556) ([1]; Enterococcus faecium (GC 4556)): 64 µg/mL (≈ 45.8 µM)
MIC Enterococcus faecium (GC 4557) ([1]; Enterococcus faecium (GC 4557)): 16 µg/mL (≈ 11.4 µM)
MIC Enterococcus faecalis (ATCC 29212) ([1]; strain ATCC 29212): >64 µg/mL
MIC Enterococcus faecalis (GC 2242) ([1]; strain GC 2242): 64 µg/mL (≈ 45.8 µM)
MIC Enterococcus faecium (GC 2243) ([1]; strain GC 2243): >64 µg/mL
MIC Enterococcus faecalis (GC 4552) ([1]; strain GC 4552): 64 µg/mL (≈ 45.8 µM)
MIC Enterococcus faecalis (GC 4553) ([1]; strain GC 4553): 64 µg/mL (≈ 45.8 µM)
MIC Enterococcus faecalis (GC 4554) ([1]; strain GC 4554): >64 µg/mL
MIC Enterococcus faecium (GC 4556) ([1]; strain GC 4556): 64 µg/mL (≈ 45.8 µM)
MIC Enterococcus faecium (GC 4557) ([1]; strain GC 4557): 16 µg/mL (≈ 11.4 µM)
MIC Enterococcus avium (GC 4558) ([1]; strain GC 4558): 64 µg/mL (≈ 45.8 µM)
MIC Escherichia coli (ATCC 25922) ([2]; Escherichia coli (ATCC 25922)): >64 µg/mL
MIC Escherichia coli (GC 4559) ([2]; Escherichia coli (GC 4559)): >64 µg/mL
MIC Escherichia coli (GC 4560) ([2]; Escherichia coli (GC 4560)): 4 µg/mL (≈ 2.86 µM)
MIC Coagulase Negative Staphylococcus (GC 4547) [3]: 8 µg/mL (≈ 5.72 µM)
MIC Coagulase Negative Staphylococcus (GC 4548) [3]: 4 µg/mL (≈ 2.86 µM)
MIC Coagulase Negative Staphylococcus (GC 4549) [3]: 4 µg/mL (≈ 2.86 µM)
MIC Coagulase Negative Staphylococcus (GC 4551) [3]: 8 µg/mL (≈ 5.72 µM)
MIC Staphylococcus aureus (ATCC 29213) [3]: 8 µg/mL (≈ 5.72 µM)
MIC Staphylococcus aureus (GC 1131) [3]: 16 µg/mL (≈ 11.4 µM)
MIC Staphylococcus aureus (GC 4541) [3]: 16 µg/mL (≈ 11.4 µM)
MIC Staphylococcus aureus (GC 4542) [3]: 16 µg/mL (≈ 11.4 µM)
MIC Staphylococcus aureus (GC 4544) [3]: 8 µg/mL (≈ 5.72 µM)
MIC Staphylococcus aureus (GC 4545) [3]: 16 µg/mL (≈ 11.4 µM)
MIC Staphylococcus aureus-SMITH (GC 4543) [3]: 8 µg/mL (≈ 5.72 µM)
MIC Staphylococcus aureus (ATCC 29213) ([3]; strain ATCC 29213): 8 µg/mL (≈ 5.72 µM)
MIC Staphylococcus aureus (GC 1131) ([3]; strain GC 1131): 16 µg/mL (≈ 11.4 µM)
MIC Staphylococcus aureus (GC 4541) ([3]; strain GC 4541): 16 µg/mL (≈ 11.4 µM)
MIC Staphylococcus aureus (GC 4542) ([3]; strain GC 4542): 16 µg/mL (≈ 11.4 µM)
MIC Staphylococcus aureus (GC 4544) ([3]; strain GC 4544): 8 µg/mL (≈ 5.72 µM)
MIC Staphylococcus aureus (GC 4545) ([3]; strain GC 4545): 16 µg/mL (≈ 11.4 µM)
MIC Streptococcus agalactiae (GC 4564) ([4]; strain GC 4564): 8 µg/mL (≈ 5.72 µM)
MIC Streptococcus pyogenes (ID-3187) ([4]; strain ID-3187): 4 µg/mL (≈ 2.86 µM)
Structure (SMILES): CC(C)CC(=O)OC1C(OC2C(CO)OC(Oc3ccc(CC4NC(=O)C(C(C)c5ccc(F)cc5)NC(=O)CNC(=O)C(CO)NC(=O)C(C(O)C5CNC(=N)N5C5OC(CO)C(O)C(O)C5O)NC(=O)C(C(O)C5CNC(=N)N5)NC4=O)cc3)C(O)C2O)OC(CO)C(O)C1O (stereo not drawn) [Example 261b, Cyclo[glycyl-4-fluoro-β-methylphenylalanyl-O-[4-O-[2-O-(3-methylbutanoyl)hexopyranosyl]-hexopyranosyl]tyrosyl-3-(2-iminoimidazolidin-4-yl)seryl-3-(3-hexopyranosyl-2-imino-imidazolidin-4-yl)serylseryl]]
MIC Staphylococcus haemolyticus (GC 4546) [3]: 8 µg/mL (≈ 5.72 µM)
